Experimental data from patent US20220041616A1, “SPIRO COMPOUND AND MEDICAL USES THEREOF” (The National Institutes of Pharmaceutical R&D Co., Ltd., priority 2018, published 2022).

What follows are molecules tested against T1, ACC1 (Homo sapiens, UniProt Q13085) (assay: In vitro inhibition of ACC1 activity, ADP-Glo Kinase Analysis). Settings: 1 nM ACC1, 10 μM acetyl-CoA, 20 μM ATP.
T1 construct: purchased BPS bioscience
Type: biochemical
Text: ADP-Glo™ Kinase Analysis Kit (Promega) is used for the in vitro analysis of the inhibitory effect of the present compound on ACC1 or ACC2. ADP-Glo™ Kinase Analysis is a kinase detection analysis of luminescence method. ADP is produced in the process of catalyzing the substrate by ACC. ADP is converted into ATP which is then converted into light by Ultra-Glo™ luciferase. ADP is quantified by detecting the light signal, thus the enzyme activity can be measured by quantification of the ADP amount produced during the enzyme reaction. The analysis is carried out in two steps: in the first step, after the kinase reaction, a portion of ADP-Glo™ reagent equal in volume to the kinase reaction system is added to terminate the reaction and consume the remaining ATP; in the second step, a kinase detection reagent is added, which not only converts ADP into ATP, but also uses a coupled luciferase/luciferin reaction to detect newly synthesized ATP.
a. 10 mM compound stock solution (the present compound was dissolved in 100% DMSO to prepare the 10 mM stock solution) was diluted 50-fold to 200 μM with 100% DMSO, and then diluted in equal proportions (1:3) in a 96-well dilution plate (249944, Nunc). The gradient concentrations of the compound were 200 μM, 66.67 μM, 22.22 μM, 7.41 μM, 2.47 μM, 0.823 μM, 0.274 μM, 0.0914 μM, 0.0305 μM, 0.0102 μM, 0.00339 μM and 0.00113 μM.
b. 4.5 μL ACC1 working solution (BPS bioscience) (2.22 nM) was added to each well of a 384-well test plate (6007290, Perkin Elmer).
c. 0.5 μL of the serially diluted compound (prepared in step a) was added to each well of the 384-well test plate, which was centrifuged at 1000 rpm for 1 min and then incubated at room temperature for 15 min. The reaction system with compound GS-0976 at a final concentration of 0.1 μM was used as positive control; the reaction system with no compound but DMSO at a final concentration of 5% was used as negative control.
d. In the 384-well test plate (prepared in step c), 5 μL of the substrate working solution was added to each well to start the enzymatic reaction. The plate was centrifuged at 1000 rpm for 1 min and then incubated at room temperature for 30 min. The final concentration of each component in the ACC1 reaction system: 1 nM ACC1, 10 μM acetyl-CoA, 30 mM NaHCO3, and 20 μM ATP. The final concentration of each component in the ACC2 reaction system: 1.1 nM ACC2, 20 μM acetyl-CoA, 20 mM NaHCO3, and 15 μM ATP. Final concentrations of test compounds: 10 μM, 3.33 μM, 1.11 μM, 0.37 μM, 0.123 μM, 0.0411 μM, 0.0137 μM, 0.00457 μM, 0.00152 μM, 0.00051 μM, 0.00017 μM and 0.000056 μM. The final concentration of DMSO was 5% (v/v).
e. 10 μL of ADP-Glo reagent was added to each well of the 384-well test plate (prepared in step d), which was centrifuged at 1000 rpm for 1 min and then incubated at room temperature for 40 min.
f. 20 μL of kinase detection reagent was added to each well of the 384-well test plate (prepared in step e), which was centrifuged at 1000 rpm for 1 min and then incubated at room temperature for 40 min.
g. The chemiluminescence signal was detected with Perkin Elmer EnVision 2104.
ACC1 working solution and substrate working solution were both prepared with 1× kinase reaction buffer. The buffer was consisting of 50 mM HEPES buffer, 2 mM magnesium chloride, 0.01% BRIJ-35, 2 mM potassium citrate, 50 μg/mL BSA and 2 mM DTT.
The average value of the positive and negative control well and the standard deviation were calculated. The inhibition percentage was calculated according to the following formula: 100×[1−(compound−average value of positive control)/(average value of negative control-average value of positive control)].
IC50 of the compound was obtained using GraphPad Prism 6 software according to the following nonlinear fitting formula:
Y=Bottom+(Top−Bottom)/(1+10^((Log IC50−X)×Hillslope)), […]

Row | IC50 [nM] | Molecule
1 | 10 to 100 | COc1ccccc1C(CN1C(=O)C2(CC(C(=O)O)C2)C(=O)c2c1sc(-c1ncco1)c2C)OC1CCOCC1 (single isomer, unassigned) [Compound 8a, 7′-(2-(2-methoxyphenyl)-2-((tetrahydro-2H-pyran-4-yl)oxy)ethyl)-3′-methyl-2′-(oxazol-2-yl)-4′,6′-dioxo-6′,7′-dihydro-4′H-spiro[cyclobutane-1,5′-thieno[2,3-b]pyridine]-3-carboxylic Acid]
2 | 100 to 500 | COc1ccccc1C(CN1C(=O)C2(CC(C(=O)O)C2)C(=O)c2c1sc(-c1ncco1)c2C)OC1CCOCC1 (single isomer, unassigned) [Compound 8b, 7′-(2-(2-methoxyphenyl)-2-((tetrahydro-2H-pyran-4-yl)oxy)ethyl)-3′-methyl-2′-(oxazol-2-yl)-4′,6′-dioxo-6′,7′-dihydro-4′H-spiro[cyclobutane-1,5′-thieno[2,3-b]pyridine]-3-carboxylic Acid]
3 | < 10 | COC(=O)CNC(=O)[C@H]1C[C@@]2(C1)C(=O)c1c(sc(-c3ncco3)c1C)N(C[C@H](OC1CCOCC1)c1ccccc1OC)C2=O [Compound 10-1, methyl ((1s,3S)-7′-((R)-2-(2-methoxyphenyl)-2-((tetrahydro-2H-pyran-4-yl)oxy)ethyl)-3′-methyl-2′-(oxazol-2-yl)-4′,6′-dioxo-6′,7′-dihydro-4′H-spiro[cyclobutane-1,5′-thieno[2,3-b]pyridine]-3-carbonyl)glycinate]

Further lines, the molecule ahead of its results:

Row | Molecule | IC50 [nM]
4 | 7′-(2-(2-methoxyphenyl)-2-((tetrahydro-2H-pyran-4-yl)oxy)ethyl)-3′-methyl-2′-(oxazol-2-yl)-4′,6′-dioxo-6′,7′-dihydro-4′H-spiro[cyclohexane-1,5′-thieno[2,3-b]pyridine]-3-carboxylic Acid [Compound 7a] | > 500
5 | 7′-(2-(2-methoxyphenyl)-2-((tetrahydro-2H-pyran-4-yl)oxy)ethyl)-3′-methyl-2′-(oxazol-2-yl)-4′,6′-dioxo-6′,7′-dihydro-4′H-spiro[cyclohexane-1,5′-thieno[2,3-b]pyridine]-3-carboxylic Acid [Compound 7b] | 100 to 500
6 | Cc1c(-c2ncco2)sc2c1C(=O)C1(CCC(C(=O)O)C1)C(=O)N2CC(OC1CCOCC1)c1ccccc1 (mixture of isomers) [Compound 3, 3′-methyl-2′-(oxazol-2-yl)-4′,6′-dioxo-7′-(2-phenyl-2-((tetrahydro-2H-pyran-4-yl)oxy)ethyl)-6′,7′-dihydro-4′H-spiro[cyclopentane-1,5′-thieno[2,3-b]pyridine]-3-carboxylic Acid] | 100 to 500
7 | Cc1c(-c2ncco2)sc2c1C(=O)C1(CCC(C)(C(=O)O)C1)C(=O)N2CC(OC1CCOCC1)c1ccccc1 (mixture of isomers) [Compound 4, 3,3′-dimethyl-2′-(oxazol-2-yl)-4′,6′-dioxo-7′-(2-phenyl-2-((tetrahydro-2H-pyran-4-yl)oxy)ethyl)-6′,7′-dihydro-4′H-spiro[cyclopentane-1,5′-thieno[2,3-b]pyridine]-3-carboxylic Acid] | 100 to 500
8 | COc1ccccc1C(CN1C(=O)C2(CCC(C(=O)O)C2)C(=O)c2c1sc(-c1ncco1)c2C)OC1CCOCC1 (mixture of isomers) [Compound 5, 7′-(2-(2-methoxyphenyl)-2-((tetrahydro-2H-pyran-4-yl)oxy)ethyl)-3′-methyl-2′-(oxazol-2-yl)-4′,6′-dioxo-6′,7′-dihydro-4′H-spiro[cyclopentane-1,5′-thieno[2,3-b]pyridine]-3-carboxylic Acid] | < 10
9 | COc1ccccc1C(CN1C(=O)C2(CCC(C(=O)O)C2)C(=O)c2c1sc(-c1ncco1)c2C)OC1CCOCC1 (mixture of isomers) [Compound 5e, 7′-(2-(2-methoxyphenyl)-2-((tetrahydro-2H-pyran-4-yl)oxy)ethyl)-3′-methyl-2′-(oxazol-2-yl)-4′,6′-dioxo-6′,7′-dihydro-4′H-spiro[cyclopentane-1,5′-thieno[2,3-b]pyridine]-3-carboxylic Acid] | 10 to 100
10 | Cc1c(-c2ncco2)sc2c1C(=O)C1(CCC(C(=O)O)CC1)C(=O)N2CC(OC1CCOCC1)c1ccccc1 (mixture of isomers) [Compound 6, 3′-methyl-2′-(oxazol-2-yl)-4′,6′-dioxo-7′-(2-phenyl-2-((tetrahydro-2H-pyran-4-yl)oxy)ethyl)-6′,7′-dihydro-4′H-spiro[cyclohexane-1,5′-thieno[2,3-b]pyridine]-4-carboxylic acid] | 100 to 500
11 | Cc1c(-c2ncco2)sc2c1C(=O)C1(CCC1)C(=O)N2CC(OC1CCOCC1)c1ccccc1 (racemic) [Compound 1, 3′-methyl-2′-(oxazol-2-yl)-7′-(2-phenyl-2-((tetrahydro-2H-pyran-4-yl)oxy)ethyl)-4′H-spiro[cyclobutane-1,5′-thieno[2,3-b]pyridine]-4′,6′(7′H)-dione] | > 500
12 | COc1ccccc1C(CN1C(=O)C2(CCC(C(=O)O)C2)C(=O)c2c1sc(-c1ncco1)c2C)OC1CCOCC1 (single isomer, unassigned) [Compound 5a, 7′-(2-(2-methoxyphenyl)-2-((tetrahydro-2H-pyran-4-yl)oxy)ethyl)-3′-methyl-2′-(oxazol-2-yl)-4′,6′-dioxo-6′,7′-dihydro-4′H-spiro[cyclopentane-1,5′-thieno[2,3-b]pyridine]-3-carboxylic Acid] | 10 to 100
13 | COc1ccccc1C(CN1C(=O)C2(CCC(C(=O)O)C2)C(=O)c2c1sc(-c1ncco1)c2C)OC1CCOCC1 (single isomer, unassigned) [Compound 5c, 7′-(2-(2-methoxyphenyl)-2-((tetrahydro-2H-pyran-4-yl)oxy)ethyl)-3′-methyl-2′-(oxazol-2-yl)-4′,6′-dioxo-6′,7′-dihydro-4′H-spiro[cyclopentane-1,5′-thieno[2,3-b]pyridine]-3-carboxylic Acid] | < 10
14 | COc1ccccc1C(CN1C(=O)C2(CCC(C(=O)O)C2)C(=O)c2c1sc(-c1ncco1)c2C)OC1CCOCC1 (single isomer, unassigned) [Compound 5d, 7′-(2-(2-methoxyphenyl)-2-((tetrahydro-2H-pyran-4-yl)oxy)ethyl)-3′-methyl-2′-(oxazol-2-yl)-4′,6′-dioxo-6′,7′-dihydro-4′H-spiro[cyclopentane-1,5′-thieno[2,3-b]pyridine]-3-carboxylic Acid] | < 10
15 | Cc1c(-c2ncco2)sc2c1C(=O)C1(CCCC1)C(=O)N2CC(OC1CCOCC1)c1ccccc1 (centres unmarked) [Compound 2, 3′-methyl-2′-(oxazol-2-yl)-7′-(2-phenyl-2-((tetrahydro-2H-pyran-4-yl)oxy)ethyl)-4′H-spiro[cyclopentane-1,5′-thieno[2,3-b]pyridine]-4′,6′(7′H)-dione] | > 500
16 | CNC(=O)[C@H]1C[C@@]2(C1)C(=O)c1c(sc(-c3ncco3)c1C)N(C[C@H](OC1CCOCC1)c1ccccc1OC)C2=O [Compound 9] | < 10
17 | COc1ccccc1[C@H](CN1c2sc(-c3ncco3)c(C)c2C(=O)[C@]2(C[C@H](C(=O)NCC(=O)O)C2)C1=O)OC1CCOCC1 [Compound 10, ((1s,3S)-7′-((R)-2-(2-methoxyphenyl)-2-((tetrahydro-2H-pyran-4-yl)oxy)ethyl)-3′-methyl-2′-(oxazol-2-yl)-4′,6′-dioxo-6′,7′-dihydro-4′H-spiro[cyclobutane-1,5′-thieno[2,3-b]pyridine]-3-carbonyl)glycine] | < 10
